Measurements reported in patent US20050119310A1, “Use of n-substituted-1,5-dideoxy-1,5-imino-d-glucitol compounds for treating hepatitis virus infections” (priority 2000, published 2005).

How the values were obtained:
[1] = system: Hepatitis B Virus; assay: Hepatitis B virus secretion from chronically HBV secreting HepG2.2.15 cells (preS1 immunoprecipitation / PCR); type: cell-based; conditions: 3 days of incubation, control = 100%
Method: The anti-hepatitis B virus activity and effect on cell viability of a number of different N-substituted-1,5-dideoxy-1,5-imino-D-glucitol compounds were assessed using an in vitro assay employing chronically hepatitis B virus secreting HepG2.2.15 cells. The method employed was essentially that described in Block et al. (1994) Proc. Natl. Acad. Sci. USA 91:2235-2239.

[2] = system: hepatitis B virus in HepG 2.2.15 (2.2.15) cells; assay: IC-90 values used for the combostat method (earlier determinations); type: cell-based; conditions: HepG2.2.15, T. Block and G. Jacob, unpublished observation
Method: The anti-hepatitis B virus effect of (−)-2′-deoxy-3′-thiocytidine-5′-triphosphate (3TC) alone and in combination with N-nonyl-DNJ was determined according to Korba ((1996) Antiviral Research 29(1):49-51), using the “combostat” strategy (Comstat Program, Combostat Corp., Duluth, Minn.). The combostat method involves serially diluting the IC-90 of each compound. The IC-90 of N-nonyl-DNJ has been determined to be between 4 and 10 μg/ml (T. Block and G. Jacob, unpublished observation). The accepted IC-90 for 3TC in HepG 2.2.15 (2.2.15) cells is 300 nM to 500 nM (Doong et al. (1991) Proc. Natl. Acad. Sci. USA 88:8495-8499).

[3] = system: woodchuck hepatitis virus (WHV); assay: Woodchuck model, N-nonyl-DNJ monotherapy, total HBV DNA and immune precipitated HBV DNA (IPDNA); type: in vivo
Method: Therefore, five groups of four animals each (all groups had both sexes, all but the control had two of each sex) were assigned to 0, 12.5, 25, 50, and 100 mg/kg/day with BID oral dosing. These were lab-reared wild animals. All animals were infected with woodchuck hepatitis virus (WHV) as neonates, and had been tested positive on serological tests for WHV surface antigen. Blood samples were drawn one week prior to dosing (−1 week), immediately before dosing (0 weeks), weekly during dosing (1, 2, 3, and 4 weeks), and after the end of dosing (5, 6, 8, and 10 weeks).
There are two measures of drug efficacy: reduction in total HBV DNA (measured by quantitative PCR), and reduction in HBV DNA from capsids with intact surface glycoproteins, which is the active form of the virus (measured by an ELISA-like immune precipitation assay followed by quantitative PCR).
Before models are fitted to the data, a log transform was applied because: 1) the variation in IPDNA increases with increasing IPDNA values; the log transformation gives values with a nearly constant variation, and 2) it is expected that drug effects will appear as a constant multiplier of the IPDNA level. Because there are zero values of IPDNA, a small value (about ½ of the smallest non-zero value) was added to all values before the log transform.
Two approaches were used to model the changes in slope to week with dose of N-nonyl-DNJ: a linear modeling approach and a nonlinear model. Both approaches assume that the (linear) rate of change of the Log(IPDNA) measure over the dosing period is the “right” measure to reflect the effect of the drug on the virus. Both approaches are fit in stages, and the first stage is common to both approaches. First, a simple straight line regression model is fit using weeks 0-4 to predict log(IPDNA+10) separately for each animal by run combination. In the second stage, the response variable is the slope fitted in the first stage.
For the linear approach, a model is fit with slope to week as the response where run is considered a block, dose has a significant effect (almost all of this effect is due to a slope to dose), and the relevant error for testing the effect of dose is the variation among animals treated alike (after the adjustment for the runs as blocks). This is similar to using the calibration data within each run to first adjust each run's data to a common virus DNA concentration; the difference is that here the data from the woodchucks are used for the run adjustment rather than only the calibration data.
For the nonlinear approach, a four parameter logistic model is fit with the slope to week as the response and the dose as the predictor. Again, run is considered a block, but because no run has all weeks, it is not possible to fully reflect the blocking in the nonlinear approach. […] The average maximum slope observed was 2.71 additional Log(IPDNA μg/mL)/week, or an increase of about 150%/week, the average minimum slope observed with N-nonyl-DNJ is 0.31 fewer Log(IPDNA μg/mL)/week), or about a decrease of about 25%/week. The slopes, the fitted model, the parameter estimates from the model, and the approximate standard errors for these parameters are all shown in FIG. 3. […] Whether in woodchucks or humans, the effective dose of both the N-alkyl-DNJ and nucleoside or nucleotide antiviral agent administered in combination therewith can be administered in two equal daily subdoses (i.e., B.I.D.).

[4] = woodchuck, weeks 0-4, with N-nonyl-DNJ

| Structure (SMILES) | Relative amount of HBV secreted, as a % of control ([1]; concentration [200]) | Relative amount of HBV secreted, as a % of control ([1]; concentration [1000]) | IC90 [2] | effect on total HBV DNA measurements ([3]; woodchuck, 12.5-100 mg/kg/day BID oral, 4 weeks of dosing) | EC50, four parameter logistic model of slope of Log(IPDNA+10) to week versus dose ([3]; woodchuck, oral BID) | increase of IPDNA at average maximum slope ([3]; woodchuck, weeks 0-4) | average maximum slope observed, additional Log(IPDNA)/week ([3]; woodchuck, weeks 0-4, upper end of fitted model) | average minimum slope observed, fewer Log(IPDNA)/week [3, 4] | decrease of IPDNA at average minimum slope [3, 4] | approximate effective monotherapy dose ([3]; woodchucks) |
| --- | --- | --- | --- | --- | --- | --- | --- | --- | --- | --- |
| CCCCN1C[C@H](O)[C@@H](O)[C@H](O)[C@H]1CO [NBDNJ, N-(n-butyl-)-1,5-dideoxy-1,5-imino-D-glucitol] | 37.0 +/− 13 (n = 15) % | 3.2 +/− 5 (n = 15) % | – | – | – | – | – | – | – | – |
| CCCCCCCCCN1C[C@H](O)[C@@H](O)[C@H](O)[C@H]1CO [Compound 1, N-(n-nonyl)-1,5-dideoxy-1,5-imino-D-glucitol] | – | – | 4 to 10 µg/mL | no effect | 7.88 mg/kg/BID dose | about 150 %/week | 2.71 Log(IPDNA μg/mL)/week | 0.31 Log(IPDNA μg/mL)/week | about 25 %/week | about 16 mg/kg/day |
| CCC(CC)CN1C[C@H](O)[C@@H](O)[C@H](O)[C@H]1CO [Compound 3, N-(2-ethylbutyl)-1,5-dideoxy-1,5-imino-D-glucitol] | 45.0 +/− 30 (n = 3) % | 5.0 +/− 20 (n = 3) % | – | – | – | – | – | – | – | – |
